Laboratory results from patent publication US20190307729A1, “ANTIMICROBIAL COMPOUNDS AND METHODS FOR USE THEREOF” (VERSITECH LIMITED, priority 2016, published 2019).
Entries after “also recorded” stand apart in the source; their conditions may differ. Like-named read-outs stand apart in the source and are kept apart here.

Legend:
[1] = tested on: hla promoter; test: Paper disc diffusion and lux assay (hla promoter lux reporter); assay type: cell-based, S. aureus
Protocol: A single colony of bioluminescent S. aureus carrying the hla-promoter lux reporting system was resuspended in 200 μl of sterile water, diluted 1000-fold into 0.7% (w/v) BHI agar and overlaid onto BHI agar plates. 10 μl of the 50 mM analogues compounds dissolved in DMSO were impregnated to paper disc and placed on the lawn of bacteria. The plates were incubated overnight at 37° C. The luminescence was detected with Xenogen IVIS 100 in vivo imaging system (Xenogen, Alameda, Calif.).

[2] = tested on: Vero cells; test: Cytotoxicity assay (MTT); assay type: cell-based; details: for Cytotoxicity: MTT assays in Vero cells
Protocol: MTT assays are performed for selected compounds on Vero cells according to product instructions.

[3] = tested on: hla promoter; test: Paper disc diffusion and lux assay (hla promoter lux reporter); assay type: cell-based, S. aureus; details: each compound used at 25 μM
[4] = tested on: S. aureus Mu3; test: BALB/c mice infection model, organ bacterial load; details: 3 days after infection
Excerpt: (§1) 6-8 weeks old female BALB/c mice were infected with 4×10^8 CFU of S. aureus. […] 3 days after infection, the animals were euthanized; kidneys, livers and spleens were homogenized in PBS, and plated on BHI agar for quantitative bacterial culture.

[5] = tested on: S. aureus USA300; test: BALB/c mice infection model, organ bacterial load; details: 3 days after infection
Excerpt: as §1

[6] = tested on: S. aureus; test: MIC of compound 3 and analogues (Table 7, strain not given); details: Staphylococcus aureus
[7] = tested on: S. aureus Mu3; test: Secondary screening of compound 13 analogues in combination with gentamicin (growth by OD 595 nm); details: for relative growth: relative to DMSO = 1
Protocol: All screening is done in 384-well polystyrene microtiter plates (Greiner Bio-One). Overnight culture of Mu3 is washed with BHI medium 3 times, diluted and plated to give 5×10^5 CFU/mL per well. The plates are incubated at 37° C. for 16 hours and growth is monitored by optical density reading at 595 nm using an automated DTX 880 multimode detector. Screening using BHI medium is designated as the background screen. […] Sub MIC concentration of antibiotics is selected for screening. BHI containing a final concentration for gentamicin 156.25 μg/mL is used correspondingly for individual experiments. […] Screening results with various antibiotics is normalized with the background screening to calculate the percentage of growth inhibition.
Identical experimental procedures are performed as primary screening procedures, except different concentrations of selected compound are tested.
Secondary like screening was performed with different concentrations of each analogue compounds were tested with different gentamicin concentration, 50 μM, 20 μM and 5 μM compound concentration were used against, BHI containing, 0 μg/ml, 100 μg/ml and 200 μg/ml gentamicin.

[8] = tested on: E. coli; test: Checkerboard assay with gentamicin; assay type: cell-based, Escherichia coli
Protocol: Bacterial culture are topped and incubated overnight.

[9] = tested on: P. aeruginosa; test: Pigment formation (virulence suppression); assay type: cell-based, Pseudomonas aeruginosa
[10] = tested on: L. monocytogenes; test: Checkerboard assay with gentamicin
Protocol: (§2) The Checkerboard assay is performed in 96-well microtitre plates. […] The antibiotics are 2 fold serially diluted along the ordinate, the compounds are added along the abscissa to generate the checkerboard concentration gradients between the compounds and the antibiotics. Bacterial culture are topped and incubated overnight. Bacterial growth is monitored by the OD absorbance at 595 nm.
(§3) The concentration tested range was from 500M to 0.98 μM. MICs higher than 500M were not determined.

[11] = tested on: E. faecalis; test: Checkerboard assay with gentamicin
Protocol: as §2, §3

[12] = tested on: S. pneumoniae; test: Checkerboard assay with gentamicin
Protocol: as §2, §3

[13] = tested on: S. aureus Mu3 strain; test: Microdilution checkerboard assay of compound with aminoglycosides
Protocol: as §2, §3

[14] = tested on: MRSA Mu3; test: Minimal inhibitory concentration (MIC) test, broth micro-dilution; assay type: cell-based, Staphylococcus aureus; details: microbroth dilution
Protocol: Preliminary testing of the MIC value of three antibiotics (Gentamicin, Ceftriaxone, and Levofloxacin) against MRSA Mu3 was performed according to microbroth dilution methods. This was to establish the reference for the appropriate amount of antibiotics to be used for HTS for hit identification of compounds that could have synergistic activities or potentiate the antibiotic's antimicrobial effect. The MIC value of Gentamicin against MRSA Mu3 was determined to be 1000 μg/mL.

[15] = Staphylococcus aureus, MU3, 16 h, read-out: relative growth

With `O=C(O)CN1C(=O)/C(=C/c2ccc(OCc3ccccc3)cc2)SC1=S` [Compound 3] the “repression in hla promoter lux reporter assay” value [1] was “significant repression”, the Cytotoxicity [2] was “Low” and the Relative lux signal [3] was 0.00439. The kidney bacterial load [4] was “reduction; also recorded: reduce kidney bacterial load”, the liver bacterial load [4] was “reduction; also recorded: reduce liver bacterial load” and the spleen bacterial load [4] was “reduction; also recorded: reduce spleen bacterial load”. The liver bacterial load [5] was “reduction; also recorded: reduce liver bacterial load”, the spleen bacterial load [5] was “reduction; also recorded: reduce spleen bacterial load” and the MIC [6] was 500 µM. It also gave an activity at 5 µM [7, 15] of 118%, an activity at 20 µM [7, 15] of 109% and an activity at 50 µM [7, 15] of 88%. The inhibition at 20 µM ([7]; Staphylococcus aureus, MU3, read-out: 20 μM + 200 μg/ml Gentamicin Growth inhibition Percentage) was 60%, the inhibition at 50 µM ([7]; Staphylococcus aureus, MU3, read-out: 50 μM + 200 μg/ml Gentamicin Growth inhibition Percentage) was 92% and the relative growth ([7]; [Cpd] 5 μM, [Genta] 100 ug/ml) was 1.12. It also gave a relative growth ([7]; [Cpd] 5 μM, [Genta] 200 ug/ml) of 1.18, a relative growth ([7]; [Cpd] 20 μM, [Genta] 100 ug/ml) of 0.94 and a relative growth ([7]; [Cpd] 20 μM, [Genta] 200 ug/ml) of 0.4. The relative growth ([7]; [Cpd] 50 μM, [Genta] 100 ug/ml) was “*0.09” and the relative growth ([7]; [Cpd] 50 μM, [Genta] 200 ug/ml) was “*0.08”.

In the case of `O=C(O)CN1C(=O)C(=Cc2ccc(OCc3ccc(Cl)cc3)cc2)SC1=S` [Compound 82], the “combined effect with gentamicin in inhibiting growth” value [8] is reported as “synergistic effect”, the “combined effect with gentamicin in inhibiting growth” value ([8]; listed as compound 82) is reported as “potentiating effect” and the “cytotoxicity from Vero cell MTT assays” value [2] is reported as “low cytotoxicity”. For the same compound, the Cytotoxicity [2] was “Low”, the pigment formation [9] was “repressing the pigment formation” and the “combined effect with gentamicin in inhibiting growth” value [10] was “potentiating effect”. For the same compound, the “combined effect with gentamicin in inhibiting growth” value [11] was “potentiating effect”, the “combined effect with gentamicin in inhibiting growth” value [12] was “potentiating effect” and the “Combinatory effect with gentamicin” value ([13]; checkerboard) was “Potentiating”. For the same compound, the “combined effect with gentamicin in inhibiting growth” value ([13]; gentamicin) was “good level of potentiating effect”, the “combined effect with neamine in inhibiting growth” value [13] was “retained its potentiating effect” and the “combined effect with neamine in inhibiting growth” value ([13]; listed as compound 82) was “potentiating effect”. For the same compound, the “20 μM + 200 μg/ml Gentamicin Growth inhibition Percentage” value ([7]; 20 μM compound + 200 μg/ml gentamicin, S. aureus Mu3) was 91%, the “50 μM + 200 μg/ml Gentamicin Growth inhibition Percentage” value ([7]; 50 μM compound + 200 μg/ml gentamicin, S. aureus Mu3) was 89% and the relative growth ([7]; [Cpd] 5 μM, BHI only (no gentamicin)) was 1.03. For the same compound, the relative growth ([7]; [Cpd] 5 μM, [Genta] 100 ug/ml) was 0.98, the relative growth ([7]; [Cpd] 5 μM, [Genta] 200 ug/ml) was 0.61 and the relative growth ([7]; [Cpd] 20 μM, BHI only (no gentamicin)) was 0.78. For the same compound, the relative growth ([7]; [Cpd] 20 μM, [Genta] 100 ug/ml) was “*0.09”, the relative growth ([7]; [Cpd] 20 μM, [Genta] 200 ug/ml) was “*0.09” and the relative growth ([7]; [Cpd] 50 μM, BHI only (no gentamicin)) was 0.99. The relative growth ([7]; [Cpd] 50 μM, [Genta] 100 ug/ml) was “*0.13” and the relative growth ([7]; [Cpd] 50 μM, [Genta] 200 ug/ml) was “*0.11”.

Gentamicin was tested, and the “MIC value against MRSA Mu3” value [14] was 1000 µg/mL.
